Measurements from publication PMC11240139, “Exploring the antitumor potential of novel quinoline derivatives via tubulin polymerization inhibition in breast cancer; design, synthesis and molecular docking” (RSC Advances, 2024).

Columns and labels:
[1] = test system: NCI-H322M (non-small cell lung cancer); assay: NCI-60 SRB cytotoxicity screen; assay type: cell-based; conditions: Homo sapiens, single dose 10 μM, read-out: growth inhibition (GI%)
OVCAR-5 (ovarian cancer) = assay: NCI-60 SRB cytotoxicity screen; assay type: cell-based; conditions: Homo sapiens; OVCAR-5, single dose 10 μM; read-out: growth inhibition (GI%)
MALME-3M (melanoma) = assay: NCI-60 SRB cytotoxicity screen; assay type: cell-based; conditions: Homo sapiens, single dose 10 μM, read-out: growth inhibition (GI%)
SN12C (renal cancer) = assay: NCI-60 SRB cytotoxicity screen; assay type: cell-based; conditions: Homo sapiens, single dose 10 μM, read-out: growth inhibition (GI%)
SK-OV-3 (ovarian cancer) = assay: NCI-60 SRB cytotoxicity screen; assay type: cell-based; conditions: Homo sapiens; SK-OV-3, single dose 10 μM; read-out: growth inhibition (GI%)
A498 (renal cancer) = assay: NCI-60 SRB cytotoxicity screen; assay type: cell-based; conditions: Homo sapiens; A498, single dose 10 μM; read-out: growth inhibition (GI%)
SK-MEL-2 (melanoma) = assay: NCI-60 SRB cytotoxicity screen; assay type: cell-based; conditions: Homo sapiens; SK-MEL-2, single dose 10 μM; read-out: growth inhibition (GI%)
SNB-75 (CNS cancer) = assay: NCI-60 SRB cytotoxicity screen; assay type: cell-based; conditions: Homo sapiens, SNB-75, SNB-75, single dose 10 μM; read-out: growth inhibition (GI%)
[2] = test system: EKVX (non-small cell lung cancer); assay: NCI-60 SRB cytotoxicity screen; assay type: cell-based; conditions: Homo sapiens, single dose 10 μM, read-out: growth inhibition (GI%)
[3] = test system: NCI-H460 (non-small cell lung cancer); assay: NCI-60 SRB cytotoxicity screen; assay type: cell-based; conditions: Homo sapiens; NCI-H460, single dose 10 μM; read-out: growth inhibition (GI%)
MDA-MB-435 (melanoma) = assay: NCI-60 SRB cytotoxicity screen; assay type: cell-based; conditions: Homo sapiens, MDA-MB-435, read-out: growth inhibition (GI%);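 further: growth inhibition in percent at a single 10 µM dose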
SF-295 (CNS cancer) = assay: NCI-60 SRB cytotoxicity screen; assay type: cell-based; conditions: Homo sapiens; SF-295, single dose 10 μM; read-out: growth inhibition (GI%)
ACHN (renal cancer) = assay: NCI-60 SRB cytotoxicity screen; assay type: cell-based; conditions: Homo sapiens, single dose 10 μM, read-out: growth inhibition (GI%)
U251 (CNS cancer) = assay: NCI-60 SRB cytotoxicity screen; assay type: cell-based; conditions: Homo sapiens, U-251; U251, single dose 10 μM; read-out: growth inhibition (GI%)
CAKI-1 (renal cancer) = assay: NCI-60 SRB cytotoxicity screen; assay type: cell-based; conditions: Homo sapiens; CAKI-1, single dose 10 μM; read-out: growth inhibition (GI%)
HCT-15 (colon cancer) = assay: NCI-60 SRB cytotoxicity screen; assay type: cell-based; conditions: Homo sapiens; HCT-15, single dose 10 μM; read-out: growth inhibition (GI%)
[4] = test system: A549/ATCC (non-small cell lung cancer); assay: NCI-60 SRB cytotoxicity screen; assay type: cell-based; conditions: Homo sapiens, single dose 10 μM, read-out: growth inhibition (GI%)
[5] = test system: MDA-MB-231/ATCC (breast cancer); assay: NCI-60 SRB cytotoxicity screen; assay type: cell-based; conditions: Homo sapiens, MDA-MB-231, read-out: growth inhibition (GI%);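 further: growth inhibition in percent at a single 10 µM dose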
TK-10 (renal cancer) = assay: NCI-60 SRB cytotoxicity screen; assay type: cell-based; conditions: Homo sapiens; TK-10, single dose 10 μM; read-out: growth inhibition (GI%)
MOLT-4 (leukemia) = assay: NCI-60 SRB cytotoxicity screen; assay type: cell-based; conditions: Homo sapiens; MOLT-4, single dose 10 μM; read-out: growth inhibition (GI%)
OVCAR-4 (ovarian cancer) = assay: NCI-60 SRB cytotoxicity screen; assay type: cell-based; conditions: Homo sapiens; OVCAR-4, single dose 10 μM; read-out: growth inhibition (GI%)
SW-620 (colon cancer) = assay: NCI-60 SRB cytotoxicity screen; assay type: cell-based; conditions: Homo sapiens; SW-620, single dose 10 μM; read-out: growth inhibition (GI%)
PC-3 (prostate cancer) = assay: NCI-60 SRB cytotoxicity screen; assay type: cell-based; conditions: PC-3, single dose 10 μM; read-out: growth inhibition (GI%)
M14 (melanoma) = assay: NCI-60 SRB cytotoxicity screen; assay type: cell-based; conditions: Homo sapiens; M14, single dose 10 μM; read-out: growth inhibition (GI%)
LOX IMVI (melanoma) = assay: NCI-60 SRB cytotoxicity screen; assay type: cell-based; conditions: Homo sapiens, single dose 10 μM, read-out: growth inhibition (GI%)
[6] = test system: HOP-92 (non-small cell lung cancer); assay: NCI-60 SRB cytotoxicity screen; assay type: cell-based; conditions: Homo sapiens; HOP-92, single dose 10 μM; read-out: growth inhibition (GI%)
CCRF-CEM (leukemia) = assay: NCI-60 SRB cytotoxicity screen; assay type: cell-based; conditions: Homo sapiens, single dose 10 μM, read-out: growth inhibition (GI%)
[7] = test system: NCI/ADR-RES (ovarian cancer); assay: NCI-60 SRB cytotoxicity screen; assay type: cell-based; conditions: Homo sapiens, single dose 10 μM, read-out: growth inhibition (GI%)
SF-539 (CNS cancer) = assay: NCI-60 SRB cytotoxicity screen; assay type: cell-based; conditions: Homo sapiens; SF-539, single dose 10 μM; read-out: growth inhibition (GI%)
UO-31 (renal cancer) = assay: NCI-60 SRB cytotoxicity screen; assay type: cell-based; conditions: Homo sapiens; UO-31, single dose 10 μM; read-out: growth inhibition (GI%)
UACC-257 (melanoma) = assay: NCI-60 SRB cytotoxicity screen; assay type: cell-based; conditions: Homo sapiens; UACC-257, single dose 10 μM; read-out: growth inhibition (GI%)
[8] = test system: NCI-H226 (non-small cell lung cancer); assay: NCI-60 SRB cytotoxicity screen; assay type: cell-based; conditions: Homo sapiens; NCI-H226, single dose 10 μM; read-out: growth inhibition (GI%)
786-0 (renal cancer) = assay: NCI-60 SRB cytotoxicity screen; assay type: cell-based; conditions: Homo sapiens; 786-0, single dose 10 μM; read-out: growth inhibition (GI%)
OVCAR-8 (ovarian cancer) = assay: NCI-60 SRB cytotoxicity screen; assay type: cell-based; conditions: Homo sapiens; OVCAR-8, single dose 10 μM; read-out: growth inhibition (GI%)
HT29 (colon cancer) = assay: NCI-60 SRB cytotoxicity screen; assay type: cell-based; conditions: Homo sapiens, HT-29; HT29, single dose 10 μM; read-out: growth inhibition (GI%)

CCc1cccc2cc(C3C=C(c4ccc(F)cc4)NC(=S)N3)c(Cl)nc12 (stereo not drawn) [Compound 6d, 4-(2-Chloro-8-ethylquinolin-3-yl)-6-(4-fluorophenyl)-3,4-dihydropyrimidine-2(1H)-thione]
inhibition at 10 µM [1]: < 10% | inhibition at 10 µM (OVCAR-5 (ovarian cancer)): < 10% | inhibition at 10 µM (MALME-3M (melanoma)): < 10% | inhibition at 10 µM (SN12C (renal cancer)): < 10% | inhibition at 10 µM (SK-OV-3 (ovarian cancer)): < 10% | inhibition at 10 µM (A498 (renal cancer)): < 10% | inhibition at 10 µM (SK-MEL-2 (melanoma)): < 10% | inhibition at 10 µM (SNB-75 (CNS cancer)): < 10% | inhibition at 10 µM [2]: < 10% | inhibition at 10 µM [3]: < 10% | inhibition at 10 µM (MDA-MB-435 (melanoma)): < 10% | inhibition at 10 µM (SF-295 (CNS cancer)): < 10% | inhibition at 10 µM (ACHN (renal cancer)): < 10% | inhibition at 10 µM (U251 (CNS cancer)): < 10% | inhibition at 10 µM (CAKI-1 (renal cancer)): 26.1% | inhibition at 10 µM (HCT-15 (colon cancer)): 26.2% | inhibition at 10 µM [4]: < 10% | inhibition at 10 µM [5]: < 10% | inhibition at 10 µM (TK-10 (renal cancer)): < 10% | inhibition at 10 µM (MOLT-4 (leukemia)): 48.8% | inhibition at 10 µM (OVCAR-4 (ovarian cancer)): 21% | inhibition at 10 µM (SW-620 (colon cancer)): < 10% | inhibition at 10 µM (PC-3 (prostate cancer)): 22% | inhibition at 10 µM (M14 (melanoma)): 10.8% | inhibition at 10 µM (LOX IMVI (melanoma)): < 10% | inhibition at 10 µM [6]: < 10% | inhibition at 10 µM (CCRF-CEM (leukemia)): < 10% | inhibition at 10 µM [7]: 17% | inhibition at 10 µM (SF-539 (CNS cancer)): < 10% | inhibition at 10 µM (UO-31 (renal cancer)): 49.5% | inhibition at 10 µM (UACC-257 (melanoma)): < 10% | inhibition at 10 µM [8]: 21.7% | inhibition at 10 µM (786-0 (renal cancer)): < 10% | inhibition at 10 µM (OVCAR-8 (ovarian cancer)): < 10% | inhibition at 10 µM (HT29 (colon cancer)): 28.3% | melting point: 220 to 222 °C
